# Paper PMC5711809, “Bayesian Analysis of MicroScale Thermophoresis Data to Quantify Affinity of Protein:Protein Interactions with Human Survivin” (Scientific Reports, 2017)
# Values joined by “and” are separate entries in the source; they are usually repeats but may differ in a detail not shown here. Identical values can stand only once. Like-named read-outs stand apart in the source and are kept apart here. Peptide text beside a SMILES is read from it.
# What was measured:
# [1] = solubility in typical aqueous buffers; assay type: physicochemical
# human survivin [2] = target: T1, human survivin (Homo sapiens, UniProt O15392); experiment: MicroScale Thermophoresis (MST) with chemically labelled survivin; assay type: binding; settings: Buffer B (50 mM Tris pH 7.4, 150 mM NaCl, 10 mM MgCl2, 0.05% Tween-20, 1 mM DTT), 24 °C, three independent dilution series, read-out: KD, Robust (Bayesian)
# T1 construct: His8 (pHIS8 vector); made in house; host or cells: E. coli BL21(DE3) star
# Protocol: Survivin was expressed in E.coli BL21(DE3) star (Merck) cells using the pHIS8 expression vector used by Verdecia et al.[18] The expression was induced at OD600 0.6–0.8 in Luria Bertani (LB) media by 0.5 mM IPTG and incubated during 3–4 h at 30 °C. The cells were harvested at 6000 g during 20 min and resuspended in lysis buffer containing 50 mM Tris pH 8, 500 mM NaCl, 10 mM imidazole, 0.25 mM Pefabloc®SC (Sigma), […] DNAse (Sigma) and 0.2 mg/ml Lysozyme (Sigma). The cells were lysed with a high pressure homogenizer, using 3 cycles of […]. Survivin was purified by Ni^2+ chelation chromatography using 5 ml HisTrap FF column (GE Healthcare). Overnight dialysis in 50 mM Tris pH8, 150 mM NaCl and 1 mM DTT buffer and a gel filtration purification using a Superdex 75 100/300GL column (GE Healthcare) were done before chemical labelling. […] The borealin^6–20, hSgol1^291–312 and hSgol2^1066–1085 peptides were chemically synthetized (Genscript).
# MicroScale Thermophoresis experiments were performed according to the NanoTemper technologies protocol in a Monolith NT.115 (green/blue) instrument (NanoTemper Technologies). […]
# Survivin was labelled with the MO-L005 Monolith™ Protein Labeling Kit GREEN-MALEIMIDE (Cysteine Reactive) from NanoTemper Technologies. Peptides derived from hSgol1^291–312 ([…]) and hSgol2^1066–1085 ([…]) were analyzed in Buffer B (50 mM Tris pH 7.4, 150 mM NaCl, 10 mM MgCl2, 0.05% Tween-20 and 1 mM DTT). All samples were measured after an incubation of 5 min (according to “User Starting Guide Monolith® NT.115”).
# The experiments were performed using 20% and 40% MST power and between 20–80% LED power at 24 °C. The MST traces were recorded using the standard parameters: 5 s MST power off, 30 s MST power on and 5 s MST power off. The reported measurement values are the combination of two effects: the fast, local environment dependent responses of the fluorophore to the temperature jump and the slower diffusive thermophoresis fluorescence changes. […]
# human survivin [3] = target: T2, human survivin (human, UniProt O15392 1-142, GREEN-MALEIMIDE (cysteine reactive) fluorescent label, in the MST experiments only); experiment: MST; labelled survivin held constant, serial dilution of the peptide; Buffer A (50 mM Tris pH 8.0, 150 mM NaCl, 1 mM DTT, 0.05% Tween); 5 min incubation; 24 °C; T-jump + thermophoresis; three dilution series; settings: both partners purified
# T2 construct: survivin, human, 16 kDa; The His tag is detected on the array by a 6X His Tag antibody; for the MST no cleavage of the tag is told; On the array the protein was unlabelled, in the MST labelled on cysteine; source: E. coli BL21(DE3) star, purified (Ni2+ chelation chromatography, gel filtration)
# human survivin [4] = target: T2, human survivin; experiment: MST; labelled survivin held constant, serial dilution of the peptide; Buffer B (50 mM Tris pH 7.4, 150 mM NaCl, 10 mM MgCl2, 0.05% Tween-20, 1 mM DTT); 5 min incubation; 24 °C; T-jump + thermophoresis; three dilution series; settings: both partners purified
# human survivin [5] = target: T2, human survivin; experiment: as above; settings: both partners purified; remark: listed apart in the source
# [6] = 5 min incubation, median and HDI 95% interval of sampled posterior
# T1 sequence (O15392 whole entry): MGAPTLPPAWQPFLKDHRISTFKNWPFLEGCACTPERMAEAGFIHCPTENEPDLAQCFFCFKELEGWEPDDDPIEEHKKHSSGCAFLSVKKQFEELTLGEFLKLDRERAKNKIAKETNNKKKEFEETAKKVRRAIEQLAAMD
# T2 sequence (O15392 whole entry): as above
molecule,measurement,setting,value
"CC(C)C[C@H](NC(=O)[C@H](CO)NC(=O)[C@H](CC(N)=O)NC(=O)[C@@H](NC(=O)[C@H](CCCCN)NC(=O)[C@H](C)NC(=O)[C@@H](NC(=O)[C@H](CCCNC(=N)N)NC(=O)[C@H](CO)NC(=O)[C@H](CO)NC(=O)CN)C(C)C)[C@@H](C)O)C(=O)N[C@@H](CCCNC(=N)N)C(=O)N[C@@H](CCCNC(=N)N)C(=O)N[C@@H](CCCNC(=N)N)C(=O)N[C@@H](CCCCN)C(=O)O [Borealin^6–20, GSSRVAKTNSLRRRK] (H-GSSRVAKTNSLRRRK-OH)",solubility (in words),[1],soluble
CSCC[C@H](NC(=O)[C@H](CCCNC(=N)N)NC(=O)[C@H](CCCCN)NC(=O)[C@H](CO)NC(=O)[C@H](CCCCN)NC(=O)[C@H](CCCNC(=N)N)NC(=O)[C@H](CCCNC(=N)N)NC(=O)[C@H](CC(N)=O)NC(=O)[C@H](C)NC(=O)[C@H](CCCCN)NC(=O)[C@H](CCCNC(=N)N)NC(=O)[C@H](CCCCN)NC(=O)[C@H](CCC(=O)O)NC(=O)[C@H](CCC(=O)O)NC(=O)[C@H](CCCNC(=N)N)NC(=O)[C@@H](N)CCCCN)C(=O)N[C@@H](CO)C(=O)N[C@@H](CCCCN)C(=O)N[C@@H](Cc1ccc(O)cc1)C(=O)N[C@@H](CCCCN)C(=O)N[C@@H](CCC(=O)O)C(=O)N[C@@H](CC(N)=O)C(=O)O [hSgol1^291–312] (H-KREEKRKANRRKSKRMSKYKEN-OH),Kd,human survivin [2]; [6],80.7 µM
same,Kd,"human survivin [2]; 120 min incubation, median and HDI 95% interval, incubation time affected adversely the sample quality",53.6 µM
CSCC[C@H](NC(=O)[C@H](CCCCN)NC(=O)[C@H](CC(N)=O)NC(=O)[C@@H](NC(=O)[C@H](CCCCN)NC(=O)[C@H](CCCCN)NC(=O)[C@@H](NC(=O)[C@H](CCC(N)=O)NC(=O)[C@H](CS)NC(=O)[C@@H](N)CCC(=O)O)C(C)C)C(C)C)C(=O)N[C@H](C(=O)N[C@@H](CO)C(=O)N[C@@H](CCCCN)C(=O)N[C@@H](CO)C(=O)N[C@@H](CCCCN)C(=O)N[C@@H](CCCCN)C(=O)N[C@@H](CCCNC(=N)N)C(=O)N[C@@H](CCCCN)C(=O)N[C@H](C(=O)N[C@@H](CO)C(=O)O)[C@@H](C)O)[C@@H](C)O [hSgol2^1066–1085] (H-ECQVKKVNKMTSKSKKRKTS-OH),Kd,human survivin [2]; [6],1.6 µM
"GSSRVAKTNSLRRRK (borealin, human, residues 6-20; source: synthetic peptide (Genscript) for MST; laser-printed on the PEPperCHIP peptide microarray (PEPperPRINT)) [borealin^6–20 peptide]",Kd,human survivin [3],10.8 µM and 10.2 µM and 10 µM
"ECQVKKVNKMTSKSKKRKTS (human Shugoshin-like 2 (hSgol2), residues 1066-1085; also called hSgol2 peptide; source: synthetic peptide (Genscript)) [hSgol2^1066–1085 peptide]",Kd,human survivin [4],1.6 µM and 1.4 µM
"KREEKRKANRRKSKRMSKYKEN (human Shugoshin-like 1 (hSgol1), residues 291-312, with the KEN motif; also called hSgol1 peptide; source: synthetic peptide (Genscript)) [hSgol1^291–312 peptide]",Kd,human survivin [5],80.9 µM
